Where a chain is given by its changes, count along the chain named. Read-outs that look alike come from different tables or passages of the source.
Columns and labels:
OATP1B1 = biological target: T1, OATP1B1 (Homo sapiens, UniProt Q9Y6L6)
T1 sequence (Q9Y6L6 1-691): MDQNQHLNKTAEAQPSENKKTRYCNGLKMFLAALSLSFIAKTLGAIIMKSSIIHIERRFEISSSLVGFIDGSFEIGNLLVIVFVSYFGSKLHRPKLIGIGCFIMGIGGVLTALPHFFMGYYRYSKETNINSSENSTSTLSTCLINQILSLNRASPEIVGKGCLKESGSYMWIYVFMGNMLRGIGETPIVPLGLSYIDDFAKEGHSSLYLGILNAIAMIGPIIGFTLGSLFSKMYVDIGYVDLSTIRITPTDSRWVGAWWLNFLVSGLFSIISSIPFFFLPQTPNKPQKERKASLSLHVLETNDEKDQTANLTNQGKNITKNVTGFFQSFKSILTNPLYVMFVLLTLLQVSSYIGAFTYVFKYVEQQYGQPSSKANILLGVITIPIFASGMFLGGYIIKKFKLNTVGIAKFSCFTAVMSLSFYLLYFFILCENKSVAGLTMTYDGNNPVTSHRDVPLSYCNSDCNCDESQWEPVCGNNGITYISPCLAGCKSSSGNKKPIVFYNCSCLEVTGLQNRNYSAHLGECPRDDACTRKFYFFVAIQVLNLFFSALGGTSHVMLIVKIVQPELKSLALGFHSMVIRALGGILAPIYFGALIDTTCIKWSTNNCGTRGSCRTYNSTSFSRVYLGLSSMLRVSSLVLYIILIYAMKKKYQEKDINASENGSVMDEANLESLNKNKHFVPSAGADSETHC

OATP1B1*5 = biological target: T2, OATP1B1*5 (Homo sapiens, UniProt Q9Y6L6, V174A); assay: OATP1B1 single nucleotide polymorphism panel uptake assay, OATP1B1*5 HEK-293 cells
T2 sequence (Q9Y6L6 1-691 V174A): T1 sequence (Q9Y6L6 1-691) with V174A

[1] = biological target: T3, Organic Anion-Transporting Polypeptide 1B1 (Homo sapiens, UniProt Q9Y6L6); assay: Suspension assay, centrifugation method, Corning TransportoCells OATP1B1*1a; type: in vitro ADME; details: 5× substrate solution containing 25 μM, 10 minutes at 37° C., 600 k cells/well
T3 construct: host or cells: HEK293 cells, gene delivered by electroporation
T3 sequence (Q9Y6L6 1-691): T1 sequence (Q9Y6L6 1-691)
Excerpt: In this experiment, a suspension assay for characterizing the activity of a drug transporter protein in cryopreserved, Corning® TransportoCells™ was developed. More specifically, the use of a centrifugation method versus a vacuum manifold for separating unreacted substrate in characterizing the activity of Organic Anion-Transporting Polypeptide 1B1 was investigated. Corning® TransportoCells™ transiently transfected with the gene OATP1B1*1a were obtained from Corning Life Sciences (Cat. No. 354859). In the Corning® TransportoCells™, the gene OATP1B1*1a was delivered into HEK293 cells via electroporation and the HEK293 cells were recovered and cryopreserved 1 hour post-electroporation. In order to obtain suitable expression of the Organic Anion-Transporting Polypeptide 1B1 encoded by OATP1B1*1a, the Corning® TransportoCells™ were thawed, cultured, and harvested.
The cells were cultured in T-175 Vented-Cap Culture Flasks with Poly-D-Lysine (hereinafter, “PDL”; available from Corning Life Sciences, Cat. No. 354539) with plating medium for 48 hours at 37° C. and 8% CO2. The plating medium is detailed in Table 16. After 24 hours, sodium butyrate (obtained from Sigma) was added to the cells to reach final 5 mM. After 48 hours, the cells were rinsed twice with Phosphate-Buffered Saline (hereinafter, “PBS”, obtained from Corning).
The cells were then harvested with 0.05% Trypsin (obtained from Sigma) and washed once with Hank's Balanced Salt Solution (hereinafter, “HBSS”) buffer (with Ca^2+ and Mg^2+, obtained from Corning). Then, the cells were resuspended in HBSS (obtained from Corning) to a final cell density of 3×10^6 cells/ml. Two suspension assay experiments were then performed to characterize the activity of Organic Anion-Transporting Polypeptide 1B1 in the Corning® TransportoCells™.
In a first suspension assay experiment, use of a centrifugation method was investigated to separate excess substrate and cells. Referencing FIG. 20, in the first suspension assay experiment, the resuspended Corning® TransportoCells™ were aliquotted (200 μl per well at a density of 600 k cells/well) into either a Corning® 96 Well Clear Round Bottom TC-Treated Microplate (available from Corning Life Sciences, Cat. No. 3799) or a Corning® 96 Well Clear V-Bottom TC-Treated Microplate (available from Corning Life Sciences, Cat. No. 3894). […] The cells were then incubated for 10 minutes at 37° C. After the incubation time, the reaction was stopped by adding ice cold HBSS buffer (50 μl) to the cells and placing the microplates on ice. Then, the microplates were centrifuged at 3000 g for 1 minute at 4° C. […] The cell lysis was then subjected to the appropriate protein analysis and/or fluorescence analysis to characterize the activity of Organic Anion-Transporting Polypeptide 1B1.

Row | Compound | UPTAKE ACTIVITY pOATP1B1 (OATP1B1; 293-F cells, 0.2 × 10^6 cells/well, after thaw from cryopreservation) | UPTAKE ACTIVITY pOATP1B1 (OATP1B1; 293-F in CD293, cryo, 24 hr post plating, 0.4×10^6 cells/well) | UPTAKE ACTIVITY pOATP1B1 (OATP1B1; 293-F in CD293, cryo, 72 hr post plating, 0.4×10^6 cells/well) | UPTAKE ACTIVITY pOATP1B1 (OATP1B1; 293-F in CD293, fresh, 48 hr post plating, 0.4×10^6 cells/well) | UPTAKE ACTIVITY pOATP1B1 (OATP1B1; FS293 cells, 0.2 × 10^6 cells/well, after thaw from cryopreservation) | UPTAKE ACTIVITY pOATP1B1 (OATP1B1; FS293 in Excell, cryo, 24 hr post plating, 0.4×10^6 cells/well) | UPTAKE ACTIVITY pOATP1B1 (OATP1B1; FS293 in Excell, cryo, 48 hr post plating, 0.4×10^6 cells/well) | UPTAKE ACTIVITY pOATP1B1 (OATP1B1; FS293 in Excell, cryo, 72 hr post plating, 0.4×10^6 cells/well) | Uptake Activity (OATP1B1; recovery time prior to cryopreservation 24 HOURS) | Uptake Activity (OATP1B1; recovery time prior to cryopreservation 30 MIN) | Km (dog Oatp1b4) | uptake of substrate (in words) (dog Oatp1b4; HEK-293 cells overexpressing the transporter) | uptake activity / transport compared to OATP1B1*1a cells (in words) (OATP1B1*5) | Uptake Activity OATP1B1 ([1]; Round Bottom) | Uptake Ratio ([1]; Round Bottom) | Uptake Activity OATP1B1 ([1]; V-Bottom) | Uptake Ratio ([1]; V-Bottom)
1 | C[C@]12CC[C@@H]3c4ccc(O)cc4CC[C@H]3[C@@H]1CC[C@@H]2O[C@@H]1O[C@H](C(=O)O)[C@@H](O)[C@H](O)[C@H]1O [E17βG] | 20.2 pmol/mg/min | 27.4 pmol/mg/min | 9.9 pmol/mg/min | 15.4 (85%) pmol/mg/min | 10.5 pmol/mg/min | 36.4 pmol/mg/min | 10.0 pmol/mg/min | 6.6 pmol/mg/min | 0.59 pmol/mg/min | 5.78 pmol/mg/min | 12.2 ± 0.6 µM | significant uptake | Significantly impaired transport |  |  |  | 
2 | fluorescein methotrexate [FMTX] |  |  |  |  |  |  |  |  |  |  |  |  | Significantly impaired transport | 0.38 pmol/mg/min | 10.9 | 1.04 pmol/mg/min | 102.3

Reference: patent publication US20170067909A1, “ASSAY-READY RECOMBINANT CELLS TRANSIENTLY OVEREXPRESSING GENES ENCODING DRUG TRANSPORTER PROTEINS AND/OR DRUG METABOLIZING ENZYMES” (Corning Incorporated, priority 2012, published 2017)
